In patent US20050065066A1, “Stabilised insulin compositions” (priority 2002, published 2005):
Read-outs that look alike come from different tables or passages of the source.

Experiments:
[1] = target: T1, metal site of insulin R6 hexamers (Homo sapiens, UniProt P01308); assay: TZD-assay: fluorescence based displacement assay; type: binding
T1 construct: human insulin comprising additional amino acids, i.e. more than 51 amino acids
Protocol: The binding affinity of ligands to the metal site of insulin R6 hexamers are measured in a fluorescense based displacement assay. The fluorescence of 5-(4-dimethylaminobenzylidene)thiazolidine-2,4-dione (TZD) which is a ligand for the metal site of insulin R6 is quenched upon displacement from the metal site to the solution. Titration of a ligand to a stock solution of insulin R6 hexamers with this compound mounted in the metal site allows the binding affinity of these ligands to be determined measuring the fluorescence at 455 nm upon excitation at 410 nm.
Stock solution: 0.02 mM human insulin, 0.007 mM Zn-acetate, 40 mM phenol, 0.01 mM TZD in 50 mM tris buffer adjusted to pH=8.0 with NaOH/ClO4^−.
The ligand is dissolved in DMSO to a concentration of 5 mM and added in aliquots to the stock solution to final concentrations of 0-250 µM.
Fluorescence measurements were carried out on a Perkin Elmer Spectrofluorometer LS50B. T main absorption band was excited at 410 nm and emission was detected at 455 nm. The resolution was 10 nm and 2.5 nm for excitation and emission, respectively.
This equation is fitted to the datapoints ΔF(455 nm))=ΔFmax* [ligand]free/(KD(app)*(1+[TZD]/KTZD)+[ligand]free)) KD(app) is the apparent dissociation constant and Fmax is the fluorescence at maximal ligand concentration. The value of KTZD is measured separately to 230 nM
Two different fitting-procedures can be used. One in which both parameters, KD(app) and Fmax, are adjusted to best fit the data and a second in which the value of Fmax is fixed (Fmax=1) and only KD(app) is adjusted. The given data are from the second fitting procedure. The Solver module of Microsoft Excel can be used to generate the fits from the data points.

[2] = Chemical stability of insulin formulations by RPC (reverse phase chromatography); type: physicochemical; details: formulated human insulin, 3 Zn2+ per hexamer
Protocol: (§1) The chemical stability of insulin formulations of the invention was characterised by HPLC (RPC, reverse phase chromatography and SEC, size exclusion chromatography). As reference, insulin formulated without ligands of the invention but with 0.3% DMSO was also investigated and shown below: [drawing]
FIG. 10. Reverse phase chromatography of formulated human insulin with 3 Zn^2+ per hexamer, 30 mM phenol, 150 mM mannitol, 3 mM phosphoric acid, sodium hydroxide to pH 7.4 and 0.3% DMSO corresponding to 3 ligands per hexamer at start (upper panel) and after storage for 2 weeks at 37° C. (lower panel): Preservatives before 20 min., “hydrophilic derivatives” (desamido-insulins) 20 min to main top insulin, “hydrophobic derivatives 1” main top to 64 min., and “hydrophobic derivatives 2” (insulin dimers) after 64 min.
(§2) Storage in HPLC 1 ml vials at 45° C. (5 d), 37° C. (2 w), 30° C. (6 w), 25° C. (10 w), 15° C. (30 w) gave about the same increase of transformation products correlating to an increase in reactions constants of a factor 3-4 per 10 degree.
RPC (reverse phase chromatography) on Waters SymmetryShield RP8 column, 150×4.6 mm and 3.5 μm, eluted by A: 0.2 M sodium sulfate+0.04 M sodium phosphate pH 7.2+10% acetonitrile and isocratically (i) or a gradient (g) of B: 70% acetonitrile [minutes/% B(i/g): 0/19, 21/24(i)(sudden change), 51/24(i), 81/39(g), 81.1/0(i), 82.3/19(i)] at flow of 0.9 mL/min and 30° C.

[3] = Chemical stability of insulin formulations by SEC (size exclusion chromatography); type: physicochemical; details: formulated human insulin, 3 Zn2+ per hexamer
Protocol: as §1, §2
SEC (size exclusion chromatography) on Waters insulin HMWP column, 300×7.8 mm, eluted by 15:20:65 of acetic acid: acetonitrile: arginine 1 g/L at flow of 1 mL/min and ambient temperature.

[4] = affinity towards the zinc site, TZD-assay, read-out: Kd(app)

T1 sequence (P01308 25-54 limits assumed): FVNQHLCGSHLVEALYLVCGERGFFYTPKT
T1 sequence (P01308 90-110 limits assumed): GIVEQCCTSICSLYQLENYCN

With O=C1NC(=O)/C(=C/c2c(Cl)cccc2Cl)S1 [Example 229, 5-(2,6-Dichlorobenzylidene)thiazolidine-2,4-dione] as the compound, how does the melting point read?
The melting point was 152 to 154 °C.

With O=C1NC(=O)/C(=C/c2cc3ccccc3[nH]c2=O)S1 [Example 242, 5-(2-Oxo-1,2-dihydroquinolin-3-ylmethylene)thiazolidine-2,4-dione] as the compound, how does the melting point read?
The melting point was 338 to 347 °C.

With CN(C)c1ccc(/C=C2\SC(=O)NC2=O)cc1 [TZD, 5-(4-dimethylaminobenzylidene)thiazolidine-2,4-dione, reference compound] as the compound, how does the Kd ([1]; measured separately, read-out: KTZD) read?
The Kd was 230 nM.

For O=C(O)COc1ccc(/C=C2\SC(=O)NC2=O)c2ccccc12 [Example 476, [4-(2,4-Dioxothiazolidin-5-ylidenemethyl)naphthalen-1-yloxy]acetic acid], which Kd [1, 4] is on record?
The Kd was 68 nM.

With O=C1NC(=O)C(=Cc2c[nH]c3ccc([N+](=O)[O-])cc23)S1 [Example 199, 5-(5-Nitro-1H-indol-3-ylmethylene)thiazolidine-2,4-dione] as the compound, how does the melting point read?
Its melting point is 330 to 333 °C.

Which melting point does the source give for CN(C)c1ccc(/C=C/C=C2\SC(=O)NC2=O)cc1 [Example 239, 5-[3-(4-Dimethylaminophenyl)allylidene]thiazolidine-2,4-dione] here?
The melting point was 259 to 263 °C.

Which melting point does the source give for Cc1cccc(C)c1/C=C1\SC(=O)NC1=O [Example 235, 5-(2,6-Dimethylbenzylidene)thiazolidine-2,4-dione] here?
Its melting point is 104 to 105 °C.

Which melting point does the source give for O=C1NC(=O)/C(=C/C(Cl)=C/c2ccccc2)S1 [Example 241, 5-(2-Chloro-3-phenylallylidene)thiazolidine-2,4-dione] here?
Its melting point is 251 to 254 °C.

Which melting point does the source give for c1cc(COc2ccc3ccccc3c2)cc(-c2nnn[nH]2)c1 [Example 572, 5-(3-(Naphthalen-2-yloxymethyl)-phenyl)-1H-tetrazole] here?
Its melting point is 200 to 202 °C.

With c1ccc2[nH]nnc2c1 [Example 1] as the compound, how does the Kd [1, 4] read?
The Kd was 3880 nM.

Which melting point does the source give for CC(/C=C1\SC(=O)NC1=O)=C\c1ccccc1 [Example 240, 5-(2-Methyl-3-phenylallylidene)thiazolidine-2,4-dione] here?
The melting point was 203 to 210 °C.

For COc1cccc(OC)c1/C=C1\SC(=O)NC1=O [Example 236, 5-(2,6-Dimethoxybenzylidene)thiazolidine-2,4-dione], which melting point is on record?
The melting point was 241 to 242 °C.

Which melting point does the source give for O=C1NC(=O)/C(=C/c2ccc3cc(O)ccc3c2)S1 [Example 171, 5-(6-Hydroxy-2-naphthylmethylene)thiazolidine-2,4-dione] here?
Its melting point is 310 to 314 °C.

With COc1cc(O)cc(OC)c1/C=C1\SC(=O)NC1=O [Example 234, 5-(4-Hydroxy-2,6-dimethoxybenzylidene)thiazolidine-2,4-dione] as the compound, how does the melting point read?
Its melting point is 331 to 333 °C.

With O=C1NC(=O)/C(=C/c2cc3ccccc3o2)S1 [Example 238, 5-Benzofuran-2-ylmethylenethiazolidine-2,4-dione] as the compound, how does the melting point read?
The melting point was 265 to 266 °C.

Which Kd [1, 4] does the source give for CCCCCOc1ccccc1/C=C1\SC(=O)NC1=O [Example 76, 5-(2-Pentyloxybenzylidene)thiazolidine-2,4-dione] here?
Its Kd is 82 nM.

What does the source list for CCN(CC)c1ccc(/C=C2\SC(=O)NC2=O)cc1 [Example 70, 5-(4-Diethylaminobenzylidene)thiazolidine-2,4-dione]?
hphil (hydrophilic derivatives, desamido-insulins) ([2]; 5° predicted): (0.54) % formed/year; hphob1 (hydrophobic derivatives 1) ([2]; 5° predicted): (0.22) % formed/year; hphob2 (hydrophobic derivatives 2, insulin dimers) ([2]; 5° predicted): (0.064) % formed/year; hphil (hydrophilic derivatives, desamido-insulins) ([2]; 15° C.): 1.95 % formed/year; hphob1 (hydrophobic derivatives 1) ([2]; 15° C.): 1.09 % formed/year; hphob2 (hydrophobic derivatives 2, insulin dimers) ([2]; 15° C.): 0.42 % formed/year; hphil (hydrophilic derivatives, desamido-insulins) ([2]; 25° C.): 6.08 % formed/year; hphob1 (hydrophobic derivatives 1) ([2]; 25° C.): 4.99 % formed/year; hphob2 (hydrophobic derivatives 2, insulin dimers) ([2]; 25° C.): 0.94 % formed/year; hphil (hydrophilic derivatives, desamido-insulins) ([2]; 30° C.): 12.1 % formed/year; hphob1 (hydrophobic derivatives 1) ([2]; 30° C.): 6.94 % formed/year; hphob2 (hydrophobic derivatives 2, insulin dimers) ([2]; 30° C.): 3.03 % formed/year; hphil (hydrophilic derivatives, desamido-insulins) ([2]; 37° C.): 23.7 % formed/year; hphob1 (hydrophobic derivatives 1) ([2]; 37° C.): 14.8 % formed/year; hphob2 (hydrophobic derivatives 2, insulin dimers) ([2]; 37° C.): 6.50 % formed/year; hphil (hydrophilic derivatives, desamido-insulins) ([2]; 45° C.): 56.2 % formed/year; hphob1 (hydrophobic derivatives 1) ([2]; 45° C.): 78.8 % formed/year; hphob2 (hydrophobic derivatives 2, insulin dimers) ([2]; 45° C.): 27.0 % formed/year; dimer ([3]; 5° predicted): (0.15) % formed/year; dimer ([3]; 15° C.): 0.69 % formed/year; dimer ([3]; 25° C.): 2.24 % formed/year; dimer ([3]; 30° C.): 3.55 % formed/year; dimer ([3]; 37° C.): 8.84 % formed/year; dimer ([3]; 45° C.): 29.2 % formed/year

With O=C(O)COc1cccc(/C=C2\SC(=O)NC2=O)c1 [Example 461, [3-(2,4-Dioxothiazolidin-5-ylidenemethyl)phenoxy]acetic acid] as the compound, how does the “hphil (hydrophilic derivatives, desamido-insulins)” value (“hphil” below) ([2]; 5° predicted) read?
Its value is “(0.287) % formed/year”.

And the “hphob1 (hydrophobic derivatives 1)” value ([2]; 5° predicted)?
Its value is “(0.153) % formed/year”.

What about the “hphob2 (hydrophobic derivatives 2, insulin dimers)” value (“hphob2” for short) ([2]; 5° predicted) of the same compound?
The value was “(0.044) % formed/year”.

What about the “hphil” value ([2]; 15° C.) of the same compound?
Its value is 1.14 % formed/year.

And the “hphob1 (hydrophobic derivatives 1)” value ([2]; 15° C.)?
Its value is 0.67 % formed/year.

And the “hphob2” value ([2]; 15° C.)?
Its value is 0.29 % formed/year.

What about the “hphil” value ([2]; 25° C.) of the same compound?
Its value is 2.86 % formed/year.

And the “hphob1 (hydrophobic derivatives 1)” value ([2]; 25° C.)?
Its value is 4.78 % formed/year.

What about the “hphob2” value ([2]; 25° C.) of the same compound?
Its value is 0.99 % formed/year.

What about the “hphil” value ([2]; 30° C.) of the same compound?
Its value is 5.12 % formed/year.

What about the “hphob1 (hydrophobic derivatives 1)” value ([2]; 30° C.) of the same compound?
The value was 7.11 % formed/year.

What about the “hphob2” value ([2]; 30° C.) of the same compound?
Its value is 1.99 % formed/year.

And the “hphil” value ([2]; 37° C.)?
The value was 11.2 % formed/year.

What about the “hphob1 (hydrophobic derivatives 1)” value ([2]; 37° C.) of the same compound?
The value was 20.0 % formed/year.

What about the “hphob2” value ([2]; 37° C.) of the same compound?
The value was 7.02 % formed/year.

And the “hphil” value ([2]; 45° C.)?
Its value is 29.9 % formed/year.

And the “hphob1 (hydrophobic derivatives 1)” value ([2]; 45° C.)?
Its value is 52.6 % formed/year.

What about the “hphob2” value ([2]; 45° C.) of the same compound?
The value was 23.4 % formed/year.

What about the dimer ([3]; 5° predicted) of the same compound?
The dimer was “(0.057) % formed/year”.

What about the dimer ([3]; 15° C.) of the same compound?
Its dimer is 0.33 % formed/year.

And the dimer ([3]; 25° C.)?
Its dimer is 1.20 % formed/year.

What about the dimer ([3]; 30° C.) of the same compound?
The dimer was 2.34 % formed/year.

And the dimer ([3]; 37° C.)?
Its dimer is 6.50 % formed/year.

What about the dimer ([3]; 45° C.) of the same compound?
The dimer was 23.4 % formed/year.

For Fc1ccc(Cn2c3ccccc3c3cc(-c4nn[nH]n4)ccc32)c(F)c1 [Example 759, 9-(2,4-Difluorobenzyl)-3-(2H-tetrazol-5-yl)-9H-carbazole], which Kd [1, 4] is on record?
The Kd was 23 nM.

For COc1cc(OCc2c(F)cccc2[N+](=O)[O-])cc(OC)c1C=C1SC(=O)NC1=O [Example 237, 5-[4-(2-Fluoro-6-nitrobenzyloxy)-2,6-dimethoxybenzylidene]thiazolidine-2,4-dione], which melting point is on record?
Its melting point is 255 to 256 °C.

For COc1cc(/C=C2\SC(=O)NC2=O)cc(I)c1O [Example 167, 5-(4-Hydroxy-3-iodo-5-methoxybenzylidene)thiazolidine-2,4-dione], which melting point is on record?
The melting point was 256 °C.
